Measurements taken from ChEMBL document CHEMBL4325894, “An update on sphingosine-1-phosphate receptor 1 modulators” (Bioorg Med Chem Lett, 2018).

Tests used:
IEC-6 [1] = assay: Inhibition of apoptosis in rat IEC-6 cells assessed as decrease in CPT-induced DNA fragmentation relative to control; assay type: functional
Homo sapiens [2] = assay: Immunosuppressive activity in human assessed as decrease in peripheral blood lymphocyte count at 30 mg/kg, po bid relative to control; assay type: functional; design: scale not given: the % may be the effect or the level left
Mus musculus [3] = assay: Immunosuppressive activity in ip dosed C57BL6 mouse assessed as decrease in CD4+ T lymphocyte count after 5 hrs by FACS analysis; assay type: functional
Mus musculus [4] = assay: Immunosuppressive activity in ip dosed C57BL6 mouse assessed as decrease in CD8+ T lymphocyte count after 5 hrs by FACS analysis; assay type: functional
Mus musculus [5] = assay: Immunosuppressive activity in C57BL6 mouse assessed as decrease in B220+ B lymphocyte count at 10 mg/kg, ip after 5 hrs by FACS analysis relative to control; assay type: functional; design: scale not given: the % may be the effect or the level left
Mus musculus [6] = assay: Immunosuppressive activity in C57BL6 mouse assessed as decrease in CD4+ T lymphocyte count at 10 mg/kg, ip after 5 hrs by FACS analysis relative to control; assay type: functional; design: scale not given: the % may be the effect or the level left
Homo sapiens [7] = species: Homo sapiens; assay: Selectivity for S1P1 (unknown origin) over S1P5 (unknown origin)
Mus musculus [8] = assay: Immunosuppressive activity in ip dosed C57BL6 mouse assessed as decrease in B220+ B lymphocyte count after 5 hrs by FACS analysis; assay type: functional
Mus musculus [9] = assay: Immunosuppressive activity in C57BL6 mouse assessed as decrease in CD8+ T lymphocyte count at 10 mg/kg, ip after 5 hrs by FACS analysis relative to control; assay type: functional; design: scale not given: the % may be the effect or the level left
[10] = Half life in human at 0.5 mg, po administered as single dose measured on day 14 by LC-MS/MS analysis; assay type: ADME, organism-based; settings: in vivo
IEC-6 [11] = assay: Inhibition of apoptosis in rat IEC-6 cells assessed as decrease in CPT-induced DNA fragmentation; assay type: functional, cell-based
Homo sapiens [12] = assay: Immunosuppressive activity in RRMS patient assessed as decrease in peripheral blood lymphocytes at 20 to 40 mg, po administered as daily dose measured after 8 days relative to control; design: scale not given: the % may be the effect or the level left
[13] = biological target: T1, Sphingosine 1-phosphate receptor 1 (Homo sapiens, UniProt P21453); assay: Activation of human recombinant S1P1 expressed in CHO cell membranes after 120 mins by GTP-gamma-35S-binding assay
T1 sequence (P21453 whole entry): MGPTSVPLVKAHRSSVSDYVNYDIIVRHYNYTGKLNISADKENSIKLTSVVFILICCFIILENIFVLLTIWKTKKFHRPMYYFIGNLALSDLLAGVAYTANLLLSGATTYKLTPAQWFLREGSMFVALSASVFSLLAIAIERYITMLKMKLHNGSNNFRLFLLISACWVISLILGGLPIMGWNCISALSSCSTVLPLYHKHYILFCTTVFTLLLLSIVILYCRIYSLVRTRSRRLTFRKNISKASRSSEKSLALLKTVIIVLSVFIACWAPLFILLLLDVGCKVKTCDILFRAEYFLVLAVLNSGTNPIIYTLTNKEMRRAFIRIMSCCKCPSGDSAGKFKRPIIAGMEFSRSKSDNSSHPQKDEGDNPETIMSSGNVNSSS

[14] = biological target: T1, Sphingosine 1-phosphate receptor 1; assay: Modulation of S1P1 receptor internalization in HCtAEC assessed as S1P1 expression at 1000 nM after 1 hr by FACS analysis relative to control
[15] = biological target: T1, Sphingosine 1-phosphate receptor 1; assay: Modulation of S1P1 receptor internalization in HCtAEC assessed as S1P1 expression at 100 nM after 1 hr by FACS analysis relative to control
Homo sapiens [16] = assay: Immunosuppressive activity in po dosed human assessed as decrease in peripheral blood lymphocyte count measured after 21 days of continuous treatment; assay type: functional; settings: 504 h
Homo sapiens [17] = assay: Immunosuppressive activity in po dosed human assessed as decrease in peripheral blood lymphocyte count measured after 24 hrs; assay type: functional
Homo sapiens [18] = species: Homo sapiens; assay: Immunosuppressive activity in human assessed as decrease in peripheral blood lymphocytes at 1 mg measured over 2 days relative to control; assay type: functional; design: scale not given: the % may be the effect or the level left
[19] = Half life in human; assay type: ADME
Homo sapiens [20] = assay: Immunosuppressive activity in human assessed as decrease in peripheral blood lymphocyte count at 0.1 mg/kg, po qd relative to control; assay type: functional; design: scale not given: the % may be the effect or the level left
[21] = Half life in human plasma; assay type: ADME, cell-free
Homo sapiens [22] = assay: Decrease in B lymphocytes in human at 10 mg dosed daily for 28 days measured within 4 to 6 hrs post dose relative to control; assay type: functional; design: scale not given: the % may be the effect or the level left
Homo sapiens [23] = assay: In vivo modulatory activity at S1P1 receptor in SPMS patient assessed as reduction in newly enlarge T2 lesion at 1.25 to 2 mg, po administered as daily dose relative to control; assay type: functional; design: scale not given: the % may be the effect or the level left
Homo sapiens [24] = assay: Decrease in CD4+ T lymphocytes in human at 10 mg dosed daily for 28 days measured within 4 to 6 hrs post dose relative to control; assay type: functional; design: scale not given: the % may be the effect or the level left
Homo sapiens [25] = assay: Decrease in naive T cells in human at 10 mg dosed daily for 28 days measured within 4 to 6 hrs post dose relative to control; assay type: functional; design: scale not given: the % may be the effect or the level left

SMILES: CCCCCCCCc1ccc(CC[C@](N)(/C=C/P(=O)(O)O)CO)cc1
- inhibition (INH) (IEC-6 [1]): 21%

SMILES: Cc1cc([C@@H](C)Nc2cccc(-c3cc(C)c(C(=O)N[C@@H](C)C(=O)O)c(C)c3)c2)ccc1Cl
- Activity (Homo sapiens [2]): 75 - 85%

SMILES: CCOc1ccc(-c2nc(-c3cccc4c3CCC4NCCO)no2)cc1OCC (centres undefined)
- ED50 (Mus musculus [3]): 0.5 mg/kg
- ED50 (Mus musculus [4]): 2 mg/kg
- Activity (Mus musculus [5]): 63%
- Activity (Mus musculus [6]): 83%
- Selectivity Index (Homo sapiens [7]): 10000
- ED50 (Mus musculus [8]): 1 mg/kg
- Activity (Mus musculus [9]): 84%

SMILES: CCCc1ccc(COc2ccc3c(c2)CCC(CN2CC(C(=O)O)C2)=C3C)c(OC)c1
- half-life [10]: 81.9 to 89 h

SMILES: CCCCCCCCc1ccc(CC[C@@](N)(CO)CCP(=O)(O)O)cc1
- EC50 (IEC-6 [11]): 75 nM
- inhibition (INH) (IEC-6 [1]): 50%

SMILES: CCC/N=C1/S/C(=C\c2ccc(OC[C@@H](O)CO)c(Cl)c2)C(=O)N1c1ccccc1C
- Activity (Homo sapiens [12]): 62%

SMILES: O=C(O)CCNCc1ccc2sc(-c3ccc(-c4ccccc4)c(C(F)(F)F)c3)cc2c1
- EC50 [13]: 1.2 nM

SMILES: C[C@H](Oc1ccc(-c2nc(-c3ccc4[nH]cnc4c3)no2)cc1C(F)(F)F)C(F)(F)F [ASP-4058]
- Activity [14]: 23%
- Activity [15]: 86%
- ED50 (Homo sapiens [16]): 0.023 mg/kg
- ED50 (Homo sapiens [17]): 0.1 mg/kg

SMILES: CCCCCCCCc1ccc(CCC(N)(CO)CO)cc1 [FINGOLIMOD]
- ED50 (Homo sapiens [16]): 0.02 mg/kg
- Activity (Homo sapiens [18]): 38%
- half-life [19]: 168 h
- Activity (Homo sapiens [20]): 80 - 86%
- ED50 (Homo sapiens [17]): 0.041 mg/kg

SMILES: CC(C)Oc1ccc(-c2nc(-c3cccc4c3CC[C@@H]4NCCO)no2)cc1C#N [OZANIMOD]
- half-life [19]: 19 h

SMILES: CCc1cc(/C(C)=N/OCc2ccc(C3CCCCC3)c(C(F)(F)F)c2)ccc1CN1CC(C(=O)O)C1 [SIPONIMOD]
- half-life [21]: 56.4 to 216 h
- Activity (Homo sapiens [22]): 88%
- Activity (Homo sapiens [23]): <=80%
- Activity (Homo sapiens [24]): 88%
- Activity (Homo sapiens [25]): 88%
